Publication PMC6901909, “Synergy Pattern of Short Cationic Antimicrobial Peptides Against Multidrug-Resistant Pseudomonas aeruginosa” (Frontiers in Microbiology, 2019)
In brackets after ≈: the same amount, converted by molar mass. Peptide text beside a SMILES is read from it.

How the values were obtained:
Assay in all cases: microbe, parasite or virus in culture
Type in all cases: cell-based, Pseudomonas aeruginosa
MDR P. aeruginosa PA 910 = details: MDR PA 910, 18 h
Experimental: (§1) We selected six different P. aeruginosa isolates that were described as MDR and had been isolated from clinical and municipal waste water ([Schwartz et al., 2006]). The minimal inhibitory concentration (MIC) was determined in a microdilution assay using Mueller-Hinton (MH) broth following a previously published protocol ([Wiegand et al., 2008]). Briefly, a twofold serial dilution of the antibiotics and peptides were prepared and added to a bacteria solution, resulting in 2–5 10^5 CFU/ml. The microtiter plates (polypropylene, Corning) were incubated for 18 h at 37°C and MICs were taken visually.

P. aeruginosa PA01-wt = details: -wt, 18 h
Experimental: as §1

MDR P. aeruginosa PA 919 = details: MDR PA 919, 18 h
Experimental: as §1

MDR P. aeruginosa PA253 = details: MDR PA253, 18 h
Experimental: as §1

SMILES | MIC against PA910 in μM (peptides, Table 4) (MDR P. aeruginosa PA 910) | MIC against PA01 wt (P. aeruginosa PA01-wt) | MIC against MDR isolates of PA, PA919 (MDR P. aeruginosa PA 919) | MIC against MDR isolates of PA, PA253 (MDR P. aeruginosa PA253) | MIC against MDR isolates of PA, PA910 (MDR P. aeruginosa PA 910)
CC[C@H](C)[C@H](NC(=O)[C@@H](N)Cc1ccccc1)C(=O)N[C@@H](CCCCN)C(=O)N[C@@H](CCCNC(=N)N)C(=O)N[C@@H](CCCCN)C(=O)N[C@@H](CO)C(=O)N[C@@H](CCCNC(=N)N)C(=O)N[C@@H](Cc1c[nH]c2ccccc12)C(=O)N[C@@H](Cc1c[nH]c2ccccc12)C(=O)N[C@@H](CCCCN)C(=O)N[C@@H](Cc1c[nH]c2ccccc12)C(=O)N[C@@H](CCCNC(=N)N)C(=O)N[C@H](C(N)=O)[C@@H](C)O [Indopt 6] (H-FIKRKSRWWKWRT-NH2) | 8 µM (≈ 15 µg/mL) | 4 µM (≈ 7.51 µg/mL) | 32 µM | 8 to 16 µM | –
CC[C@H](C)[C@H](N)C(=O)N[C@@H](CC(C)C)C(=O)N[C@@H](CCCCN)C(=O)N[C@@H](Cc1c[nH]c2ccccc12)C(=O)N[C@@H](CCCCN)C(=O)N[C@@H](CCCNC(=N)N)C(=O)N[C@@H](CCCCN)C(=O)N[C@@H](Cc1c[nH]c2ccccc12)C(=O)N[C@@H](Cc1c[nH]c2ccccc12)C(=O)N[C@@H](CCCCN)C(=O)N[C@@H](Cc1c[nH]c2ccccc12)C(=O)N[C@@H](Cc1ccccc1)C(=O)N[C@@H](CCCNC(=N)N)C(N)=O [Indopt 7] (H-ILKWKRKWWKWFR-NH2) | 4 µM (≈ 7.84 µg/mL) | 2 µM (≈ 3.92 µg/mL) | 32 µM | 8 µM | –
CC[C@H](C)[C@H](N)C(=O)N[C@@H](CC(C)C)C(=O)N[C@@H](CCCCN)C(=O)N[C@@H](Cc1c[nH]c2ccccc12)C(=O)N[C@@H](CCCCN)C(=O)N[C@H](C(=O)N[C@@H](Cc1ccccc1)C(=O)N[C@@H](CCCCN)C(=O)N[C@@H](Cc1c[nH]c2ccccc12)C(=O)N[C@@H](CCCCN)C(=O)N[C@@H](Cc1c[nH]c2ccccc12)C(=O)N[C@@H](Cc1ccccc1)C(=O)N[C@@H](CCCNC(=N)N)C(N)=O)[C@@H](C)CC [Indopt 10] (H-ILKWKIFKWKWFR-NH2) | 4 µM (≈ 7.51 µg/mL) | 2 µM (≈ 3.76 µg/mL) | 32 µM | 8 to 16 µM | –
CC[C@H](C)[C@H](N)C(=O)N[C@@H](CC(C)C)C(=O)N[C@@H](CCCCN)C(=O)N[C@@H](Cc1c[nH]c2ccccc12)C(=O)N[C@@H](CCCCN)C(=O)N[C@@H](CCSC)C(=O)N[C@@H](Cc1ccccc1)C(=O)N[C@@H](CCCCN)C(=O)N[C@@H](Cc1c[nH]c2ccccc12)C(=O)N[C@@H](CCCCN)C(=O)N[C@@H](Cc1c[nH]c2ccccc12)C(=O)N[C@@H](Cc1ccccc1)C(=O)N[C@@H](CCCNC(=N)N)C(N)=O [Indopt 12] (H-ILKWKMFKWKWFR-NH2) | 4 µM (≈ 7.59 µg/mL) | 2 µM (≈ 3.79 µg/mL) | 16 µM | 16 µM | –
CC(C)[C@H](NC(=O)[C@H](Cc1c[nH]c2ccccc12)NC(=O)[C@H](CCCNC(=N)N)NC(=O)[C@H](Cc1c[nH]c2ccccc12)NC(=O)[C@H](Cc1c[nH]c2ccccc12)NC(=O)[C@H](CCCNC(=N)N)NC(=O)[C@@H](N)CCCNC(=N)N)C(=O)N[C@H](C(=O)N[C@@H](Cc1c[nH]c2ccccc12)C(N)=O)C(C)C [LOP2] (H-RRWWRWVVW-NH2) | 8 µM (≈ 11.4 µg/mL) | 4 µM (≈ 5.71 µg/mL) | 2 µM | 8 µM | –
CC[C@H](C)[C@H](NC(=O)[C@H](CCCNC(=N)N)NC(=O)[C@H](Cc1c[nH]c2ccccc12)NC(=O)[C@H](CCCNC(=N)N)NC(=O)[C@H](CCCNC(=N)N)NC(=O)[C@@H](N)CCCCN)C(=O)N[C@@H](Cc1c[nH]c2ccccc12)C(=O)N[C@@H](CC(C)C)C(=O)N[C@H](C(N)=O)C(C)C [LOP3] (H-KRRWRIWLV-NH2) | 8 µM (≈ 10.5 µg/mL) | 4 µM (≈ 5.25 µg/mL) | 4 µM | 4 to 8 µM | –
CC[C@H](C)[C@H](NC(=O)[C@@H](NC(=O)[C@H](CCCNC(=N)N)NC(=O)[C@H](Cc1c[nH]c2ccccc12)NC(=O)[C@H](CCCNC(=N)N)NC(=O)[C@@H](N)CCCNC(=N)N)C(C)C)C(=O)N[C@H](C(=O)N[C@@H](CCCCN)C(=O)N[C@@H](Cc1c[nH]c2ccccc12)C(N)=O)C(C)C [LOP4] (H-RRWRVIVKW-NH2) | 4 µM (≈ 5.19 µg/mL) | 4 µM (≈ 5.19 µg/mL) | 4 µM | 8 µM | –
CC[C@H](C)[C@H](NC(=O)[C@H](Cc1c[nH]c2ccccc12)NC(=O)[C@H](CCCCN)NC(=O)[C@H](CCCCN)NC(=O)[C@H](CC(C)C)NC(=O)[C@H](Cc1c[nH]c2ccccc12)NC(=O)[C@H](CCCCN)NC(=O)[C@@H](N)Cc1c[nH]c2ccccc12)C(=O)N[C@@H](CCCCN)C(N)=O [LOP5] (H-WKWLKKWIK-NH2) | 8 µM (≈ 10.5 µg/mL) | 4 µM (≈ 5.26 µg/mL) | 8 µM | 8 µM | –
CC[C@H](C)[C@H](NC(=O)[C@H](CCCNC(=N)N)NC(=O)[C@H](CCCNC(=N)N)NC(=O)[C@H](CC(C)C)NC(=O)[C@@H](N)CCCNC(=N)N)C(=O)N[C@H](C(=O)N[C@H](C(=O)N[C@H](C(=O)N[C@@H](CCCNC(=N)N)C(=O)N[C@H](C(=O)N[C@@H](C)C(=O)N[C@@H](CCCNC(=N)N)C(N)=O)C(C)C)[C@@H](C)CC)C(C)C)C(C)C [Peptide R3] (H-RLRRIVVIRVAR-NH2) | 32 µM (≈ 48.2 µg/mL) | 16 µM (≈ 24.1 µg/mL) | 16 µM | 16 µM | –
CC[C@H](C)[C@H](NC(=O)[C@H](CCCNC(=N)N)NC(=O)[C@H](C)NC(=O)[C@H](CC(C)C)NC(=O)[C@@H](N)CCCNC(=N)N)C(=O)N[C@H](C(=O)N[C@H](C(=O)N[C@H](C(=O)N[C@@H](CCCNC(=N)N)C(=O)N[C@@H](Cc1c[nH]c2ccccc12)C(=O)N[C@@H](C)C(=O)N[C@@H](CCCNC(=N)N)C(N)=O)[C@@H](C)CC)C(C)C)C(C)C [Peptide W10] (H-RLARIVVIRWAR-NH2) | – | 16 µM (≈ 24.1 µg/mL) | 16 µM | 16 µM | 16 µM
